From ChEMBL document CHEMBL1201862, “PubChem BioAssay data set” (2004) come the findings set out here.

Some test systems named below: 786-0; A549; CAKI-1; EKVX; HCC 2998; HCT-116; HL-60; KM-20L2; M14; MOLT-4; NCI-H226; OVCAR-8; RPMI-8226; SK-MEL-28; SK-MEL-2; SK-MEL-5; UACC-62; SR.
Holding throughout (experiment): NCI anticancer screen, dose series, 48 h

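Growth conditions: 96-well plates. Treatment: test compound, 48 hours, 5 concentrations. Analysis: linear interpolation between bracketing concentrations; unreached endpoints set to highest concentration. The concentration for 50% growth inhibition is given as GI50.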 The source made the active and inactive calls. No stated cut-off is given here; in the data, active = GI50 up to about 1.1 µM and inactive = higher. Where only a bound is given, the exact number is not on record here.

For the compound `O=C(c1ccccc1)C(c1ccccc1)C1(O)C(=O)Nc2ccc([N+](=O)[O-])cc21` (configuration not stated), the GI50 in the assay with 786-0, in the assay with A549, with CAKI-1, with EKVX, in the assay on HCC 2998 and with HCT-116 was > 100 µM (inactive) throughout. In addition, the GI50 in the assay on HL-60 was 42.9 µM (inactive); in the assay on KM-20L2 it was > 100 µM (inactive); in the assay on M14 it was > 100 µM (inactive); with MOLT-4 it was 83.2 µM (inactive); with NCI-H226, > 100 µM (inactive); in the assay on OVCAR-8 it was > 100 µM (inactive). Also, the GI50 with RPMI-8226 was 37.7 µM (inactive); in the assay on SK-MEL-28, > 100 µM (inactive); in the assay on SK-MEL-2, > 100 µM (inactive); in the assay on SK-MEL-5, 24 µM (inactive); in the assay with UACC-62, 58.1 µM (inactive).

Regarding `COc1cc2c(c(OC)c1OC)-c1ccc(SC)c(=O)cc1[C@@H](NCc1ccccc1[N+](=O)[O-])CC2`, the GI50 with 786-0 was 0.0246 µM (active); in the assay on A549, 0.00929 µM (active); in the assay on CAKI-1, 0.01 µM (active); in the assay on EKVX it was 0.0564 µM (active); in the assay with HCC 2998, 0.0128 µM (active); in the assay with HCT-116 it was 0.00644 µM (active). Further, the GI50 was 0.00313 µM (active) in the assay with HL-60; 0.00314 µM (active) with KM-20L2; 0.00546 µM (active) in the assay with M14; 0.0241 µM (active) in the assay on MOLT-4; 0.0234 µM (active) in the assay with NCI-H226; 0.0184 µM (active) in the assay on OVCAR-8. For the same compound, the GI50 in the assay with RPMI-8226 is 0.00671 µM (active); with SK-MEL-28, 0.00444 µM (active); in the assay with SK-MEL-2 it was 0.0217 µM (active); in the assay on SK-MEL-5, 0.00411 µM (active); in the assay on UACC-62 it was 0.00326 µM (active).

As to `O=[N+]([O-])c1cc(C(F)(F)F)cc([N+](=O)[O-])c1CCl`, the GI50 was 3.14 µM (inactive) in the assay on 786-0; 9.53 µM (inactive) in the assay with A549; 3.15 µM (inactive) with CAKI-1; 6.81 µM (inactive) in the assay on EKVX; 0.897 µM (active) in the assay with HCT-116; 1.31 µM (inactive) in the assay on HL-60. For the same compound, the GI50 is 3.98 µM (inactive) in the assay on KM-20L2; 0.53 µM (active) in the assay with M14; 0.248 µM (active) in the assay with MOLT-4; 1.57 µM (inactive) with NCI-H226; 2.14 µM (inactive) in the assay on OVCAR-8; 1.16 µM (inactive) in the assay on RPMI-8226. Moreover, the GI50 with SK-MEL-28 was 4.84 µM (inactive); with SK-MEL-5, 0.456 µM (active); with SR, 0.388 µM (active); in the assay with UACC-62, 0.336 µM (active).

In the case of `COC(OC)C(C)CC(=O)N(C)C` (configuration not stated), the GI50 in the assay on 786-0, in the assay on A549, in the assay with EKVX, with HCC 2998, with HCT-116 and with HL-60 was > 100 µM (inactive) each time. Besides, the GI50 in the assay on KM-20L2, in the assay on M14, in the assay with MOLT-4, with NCI-H226, in the assay on OVCAR-8 and in the assay with RPMI-8226 was > 100 µM (inactive) each time. The GI50 with SK-MEL-28, with SK-MEL-2, in the assay on SK-MEL-5 and in the assay on UACC-62 was > 100 µM (inactive) in each case.

Regarding `[N-]=[N+]=N/C1=C/CCCCC(=O)C1`, the GI50 in the assay on 786-0, in the assay on A549, in the assay with CAKI-1, with EKVX, with HCC 2998 and in the assay with HL-60 was > 100 µM (inactive) each time. Besides, the GI50 with KM-20L2, in the assay on M14, in the assay on MOLT-4, in the assay with OVCAR-8, in the assay with RPMI-8226 and with SK-MEL-28 was > 100 µM (inactive) in each case. Further, the GI50 in the assay on SK-MEL-2, with SK-MEL-5 and in the assay with UACC-62 was > 100 µM (inactive) in each case.

In the case of `[O-][n+]1c2cc3c(cc2[n+]([O-])c2c(O)cccc21)CN(CCN1CCOCC1)C3`, the GI50 is 16.8 µM (inactive) in the assay on 786-0; 34.9 µM (inactive) in the assay with A549; 48.9 µM (inactive) with CAKI-1; 14.9 µM (inactive) in the assay on EKVX; 11.4 µM (inactive) in the assay on HCT-116; 5.7 µM (inactive) in the assay with HL-60. The GI50 with KM-20L2 is 35.4 µM (inactive); in the assay on M14, 49.5 µM (inactive); with MOLT-4, 4.43 µM (inactive); in the assay on NCI-H226, 41.9 µM (inactive); in the assay with OVCAR-8, 12.1 µM (inactive); with RPMI-8226, 18.4 µM (inactive). Moreover, the GI50 was > 100 µM (inactive) in the assay on SK-MEL-28; 20.7 µM (inactive) in the assay on SK-MEL-2; 56 µM (inactive) in the assay on SK-MEL-5; 2.48 µM (inactive) in the assay with SR; 24.8 µM (inactive) with UACC-62.

Turning to `COC(=O)C12C3C4C1C1C2C3C41C(=O)N(C(C)C)C(C)C` (configuration not stated), the GI50 in the assay on 786-0, in the assay with A549, in the assay on EKVX, in the assay with HCC 2998, in the assay with HCT-116 and in the assay with HL-60 was > 100 µM (inactive) throughout. Also, the GI50 in the assay on KM-20L2, with M14, with MOLT-4, in the assay on NCI-H226, in the assay on OVCAR-8 and in the assay on SK-MEL-28 was > 100 µM (inactive) throughout. Moreover, the GI50 in the assay on SK-MEL-5, with SR and in the assay on UACC-62 was > 100 µM (inactive) in each case.

Turning to `CC1=CC(=O)N(c2c(C)cccc2Cl)C(C)N1` (configuration not stated), the GI50 in the assay with 786-0, with A549, in the assay with CAKI-1, in the assay on EKVX, in the assay with HCC 2998 and with HCT-116 was > 100 µM (inactive) in each case. Besides, the GI50 in the assay on HL-60, with KM-20L2, with M14, in the assay on MOLT-4, with NCI-H226 and with OVCAR-8 was > 100 µM (inactive) each time. Further, the GI50 in the assay with SK-MEL-28, in the assay with SK-MEL-2, in the assay with SK-MEL-5 and with UACC-62 was > 100 µM (inactive) in each case.

As to `COC(=O)/C=C(C)/C=C/c1c(C)c(C(C)=O)c(C)n1C`, the GI50 is > 100 µM (inactive) with 786-0; > 100 µM (inactive) with A549; 63.5 µM (inactive) in the assay with CAKI-1; 88.5 µM (inactive) in the assay with EKVX; > 100 µM (inactive) in the assay on HCC 2998; > 100 µM (inactive) in the assay on HCT-116. In addition, the GI50 in the assay with HL-60 was 49.9 µM (inactive); in the assay on KM-20L2 it was > 100 µM (inactive); with M14, > 100 µM (inactive); in the assay on MOLT-4 it was 40.3 µM (inactive); in the assay on NCI-H226, 80.4 µM (inactive); with OVCAR-8, > 100 µM (inactive). The GI50 with RPMI-8226 is 57.7 µM (inactive); in the assay with UACC-62, 96.2 µM (inactive).

Take `CCOC(=O)C1C=C2O[C@@H]3OC4(CCCCC4)O[C@@H]3C2C2C(=O)CCC(=O)[C@@]12C(=O)OC` (some centres not stated): the GI50 in the assay with 786-0, with A549, with CAKI-1, in the assay with EKVX, in the assay on HCC 2998 and in the assay on HCT-116 was > 100 µM (inactive) in each case. The GI50 in the assay on HL-60, in the assay on KM-20L2, in the assay on M14, in the assay with MOLT-4, in the assay with NCI-H226 and with OVCAR-8 was > 100 µM (inactive) throughout. In addition, the GI50 with RPMI-8226, in the assay on SK-MEL-28, in the assay on SK-MEL-2, in the assay with SK-MEL-5 and in the assay on UACC-62 was > 100 µM (inactive) throughout.

For `CCNc1nc2c(=O)n(C)c(=O)n(C)c2s1`, the GI50 in the assay on 786-0, with A549, with EKVX, with HCC 2998, in the assay on HCT-116 and in the assay on HL-60 was > 100 µM (inactive) each time. For the same compound, the GI50 in the assay on KM-20L2, in the assay on M14, with MOLT-4, in the assay on NCI-H226, with OVCAR-8 and with RPMI-8226 was > 100 µM (inactive) throughout. The GI50 in the assay with SK-MEL-28, in the assay with SK-MEL-2 and with UACC-62 was > 100 µM (inactive) each time.

Consider `C=C1C=CC2(Br)OC3CC(C)(Cl)C(Br)CC13C2(C)C` (configuration not stated), for which the GI50 was 33.8 µM (inactive) in the assay with 786-0; 26.4 µM (inactive) in the assay on A549; 29.5 µM (inactive) in the assay with CAKI-1; 24.5 µM (inactive) in the assay with EKVX; 20.4 µM (inactive) with HCC 2998; 15 µM (inactive) in the assay with HCT-116. The GI50 in the assay on HL-60 is 15.2 µM (inactive); in the assay with KM-20L2 it was 21.9 µM (inactive); in the assay on M14 it was 21.2 µM (inactive); in the assay with MOLT-4, 16.9 µM (inactive); in the assay with NCI-H226, 19.1 µM (inactive); with OVCAR-8 it was 30.7 µM (inactive). Further, the GI50 in the assay with RPMI-8226 is 23.2 µM (inactive); in the assay with SK-MEL-28, 20 µM (inactive); with SK-MEL-2, 17.6 µM (inactive); in the assay on SK-MEL-5, 17.3 µM (inactive); in the assay with UACC-62, 17.8 µM (inactive).
